SMILES strings stand for the structures. In brackets after ≈: the same amount, converted by molar mass.

One data set relates to Vero. The data set is described as follows: Cytotoxicity against African green monkey Vero cells assessed as cell viability up to 62.5 ug/mL after 72 hrs by MTT assay. The following applies: chlorocebus sabaeus. The data set is classed as cell-based. On the technique in general: Formazan colour is commonly taken as a measure of viable cells.
The subject of data set [1] is Mycobacterium tuberculosis. The data set is described as follows: Potency index, ratio of pyrimethamine MIC90 to compound MIC90 for Mycobacterium tuberculosis H37Rv. Type of data set: functional.
Data set [2] relates to Mycobacterium tuberculosis. The data set is described as follows: Antimycobacterial activity against Mycobacterium tuberculosis H37Rv assessed as growth inhibition by Alamar Blue staining-based broth microdilution assay. Type of data set: functional, organism-based. Background: The colour change of resazurin is a common sign of viable cells or microbes.
For data set [3], the system named is Mycobacterium tuberculosis. The data set is described as follows: Potency index, ratio of pyrimethamine EC90 to compound EC90 for Mycobacterium tuberculosis H37Rv. Type of data set: functional.
Data set [4] relates to Mycobacterium tuberculosis. The data set is described as follows: Potency index, ratio of pyrimethamine EC50 to compound EC50 for Mycobacterium tuberculosis H37Rv. Type of data set: functional.
In data set [5] the test system is Mycobacterium tuberculosis. The data set is described as follows: Potency index, ratio of cycloserine EC50 to compound EC50 for Mycobacterium tuberculosis H37Rv. Type of data set: functional.

For the compound `COc1ccc(/C=C2\SC(=O)N(C(C(=O)C3CC3)c3ccccc3F)C2=O)cc1OC` (stereo unspecified), the Activity result with Vero is listed as “Non-toxic”. For the same compound, the Ratio in data set [1] worked out at 4. Further, in data set [2], the EC50 (in general, the concentration that produces a half-maximal response) came out at 8 µM; the EC90 (usually the concentration needed for an effect of 90%) amounted to 16 µM; the MIC90 (commonly an inhibitory concentration at the 90% level, which refers to growth in some studies and to a panel of isolates in others) amounted to 25 µM (≈ 11 µg/mL).

Take `COc1cc(OC)c(/C=C2\SC(=O)N(C(C(=O)C3CC3)c3ccccc3F)C2=O)c(OC)c1` (stereo unspecified): the Activity result in the data set on Vero is on record as “Non-toxic”. In addition, in data set [2], the EC50 came to 13 µM, the EC90 came out at 27 µM and the MIC90 worked out at 50 µM (≈ 23.6 µg/mL).

As for `COc1cc(/C=C2\SC(=O)N(C(C(=O)C3CC3)c3ccccc3F)C2=O)cc(OC)c1OC` (stereo unspecified), the Activity result in the data set on Vero is recorded as “Non-toxic”. In data set [2], the EC50 amounted to 19 µM, the EC90 was 53 µM and the MIC90 came to 50 µM (≈ 23.6 µg/mL).

Consider `COc1cc(Br)c(/C=C2\SC(=O)N(C(C(=O)C3CC3)c3ccccc3F)C2=O)cc1O` (stereo unspecified), for which, in the data set on Vero, the Activity entry is reported as “Non-toxic”. In addition, in data set [2], the concentration for a half-maximal effect (EC50) came out at 15 µM, the EC90 came to 54 µM and the MIC90 came out at 50 µM (≈ 25.3 µg/mL).

As to `O=C(C1CC1)C(c1ccccc1F)N1C(=O)S/C(=C\c2ccc(N3CCCCC3)cc2)C1=O` (stereo unspecified), the Activity entry with Vero is given as “Non-toxic”. Moreover, in data set [1], the Ratio was 4. Further, in data set [2], the EC50 worked out at 24 µM, the EC90 came to 36 µM and the MIC90 is 25 µM (≈ 11.6 µg/mL).

Take `O=C(C1CC1)C(c1ccccc1F)N1C(=O)S/C(=C\c2cccs2)C1=O` (stereo unspecified): the Activity result with Vero was “Non-toxic”. Also, the Ratio in data set [1] came to 4; in data set [3], 6.26. The “Ratio EC50” value is listed as 5.85 in data set [4] and 1.95 in data set [5]. Besides, the EC50 in data set [2] stood at 6 µM. In addition, in data set [2], the EC90 is 11 µM. The MIC90 in data set [2] turned out to be 25 µM (≈ 9.69 µg/mL).

For `O=C(C1CC1)C(c1ccccc1F)N1C(=O)S/C(=C\c2cc(Br)cs2)C1=O` (stereo unspecified), in the data set with Vero, the Activity result was “Non-toxic”. Besides, in data set [2], the concentration for a half-maximal effect (EC50) was 18 µM, the concentration for an effect of 90% (EC90) was found to be 27 µM and the MIC90 is 50 µM (≈ 23.3 µg/mL).

Turning to `O=C(C1CC1)C(c1ccccc1F)N1C(=O)S/C(=C\c2c[nH]c3ccccc23)C1=O` (stereo unspecified), the Activity result in the data set on Vero is given as “Non-toxic”. Moreover, in data set [1], the Ratio is on record as 4. For the same compound, in data set [2], the EC50 was 18 µM, the EC90 was 27 µM and the MIC90 turned out to be 25 µM (≈ 10.5 µg/mL).

On to `O=C(C1CC1)C(c1ccccc1F)N1C(=O)S/C(=C\c2ccc3ccccc3n2)C1=O` (stereo unspecified), for which the Activity entry with Vero is “Non-toxic”. Besides, the Ratio in data set [1] came out at 4. In data set [2], the concentration for a half-maximal effect (EC50) came to 14 µM, the concentration for an effect of 90% (EC90) came to 68 µM and the MIC90 amounted to 25 µM (≈ 10.8 µg/mL).

As for `O=C(C1CC1)C(c1ccccc1F)N1C(=O)S/C(=C\c2ccc3c(c2)OCO3)C1=O` (stereo unspecified), the Activity entry in the data set on Vero is “Non-toxic”. Further, in data set [1], the Ratio was 4. For the same compound, in data set [2], the EC50 amounted to 9 µM, the EC90 was determined as 21 µM and the MIC90 turned out to be 25 µM (≈ 10.6 µg/mL).

Take `O=C(C1CC1)C(c1ccccc1F)N1C(=O)CSC1=O` (stereo unspecified): the Activity entry with Vero was “Non-toxic”. The Ratio in data set [1] was 4. Further, in data set [2], the EC50 was found to be 6 µM, the EC90 was found to be 26 µM and the MIC90 was found to be 25 µM (≈ 7.33 µg/mL).

Regarding `O=C(C1CC1)C(c1ccccc1F)N1C(=O)S/C(=C\c2ccccc2)C1=O` (stereo unspecified), the Activity entry in the data set on Vero is listed as “Non-toxic”. In data set [2], the EC50 came to 17 µM, the EC90 was found to be 36 µM and the MIC90 was 50 µM (≈ 19.1 µg/mL).

With `O=C(C1CC1)C(c1ccccc1F)N1C(=O)S/C(=C\c2ccc(Cl)cc2)C1=O` (stereo unspecified), the Activity result with Vero is recorded as “Non-toxic”. In data set [2], the EC50 amounted to 25 µM, the EC90 was determined as 55 µM and the MIC90 was 50 µM (≈ 20.8 µg/mL).

For `O=C(C1CC1)C(c1ccccc1F)N1C(=O)S/C(=C\c2ccc(F)cc2)C1=O` (stereo unspecified), in the data set with Vero, the Activity result is listed as “Non-toxic”. Further, in data set [1], the Ratio was 4. Further, in data set [2], the EC50 came out at 11 µM, the EC90 came to 25 µM and the MIC90 was found to be 25 µM (≈ 9.99 µg/mL).

As to `O=C(C1CC1)C(c1ccccc1F)N1C(=O)S/C(=C\c2ccc(O)cc2)C1=O` (stereo unspecified), the Activity entry in the data set on Vero is reported as “Non-toxic”. Moreover, the Ratio in data set [1] is 4. In addition, in data set [2], the EC50 stood at 10 µM, the EC90 is 19 µM and the MIC90 was determined as 25 µM (≈ 9.94 µg/mL).

Regarding `COc1ccc(/C=C2\SC(=O)N(C(C(=O)C3CC3)c3ccccc3F)C2=O)cc1` (stereo unspecified), in the data set with Vero, the Activity entry is reported as “Non-toxic”. Further, in data set [1], the Ratio is listed as 4. Further, in data set [2], the concentration giving a half-maximal response (EC50) stood at 11 µM, the EC90 worked out at 27 µM and the MIC90 worked out at 25 µM (≈ 10.3 µg/mL).

Consider `CSc1ccc(/C=C2\SC(=O)N(C(C(=O)C3CC3)c3ccccc3F)C2=O)cc1` (stereo unspecified), for which, in the data set on Vero, the Activity entry is “Non-toxic”. In addition, the Ratio in data set [1] was determined as 4. In data set [2], the concentration for a half-maximal effect (EC50) came out at 16 µM, the EC90 came out at 25 µM and the MIC90 is 25 µM (≈ 10.7 µg/mL).

As to `O=C(C1CC1)C(c1ccccc1F)N1C(=O)S/C(=C\c2ccc(O)c(O)c2)C1=O` (stereo unspecified), the Activity result in the data set on Vero is “Non-toxic”. Further, in data set [1], the Ratio came to 4. In data set [2], the EC50 turned out to be 21 µM, the EC90 was determined as 55 µM and the MIC90 is 25 µM (≈ 10.3 µg/mL).

Regarding `NCC[C@H](O)C(=O)N[C@@H]1C[C@H](N)[C@@H](O[C@H]2O[C@H](CN)[C@@H](O)[C@H](O)[C@H]2O)[C@H](O)[C@H]1O[C@H]1O[C@H](CO)[C@@H](O)[C@H](N)[C@H]1O` [AMIKACIN], in data set [2], the EC90 turned out to be 0.08 µM and the MIC90 amounted to 0.16 µM (≈ 0.0937 µg/mL).

In the case of `N[C@@H]1CONC1=O` [CYCLOSERINE], in data set [2], the EC50 is 12.5 µM, the EC90 was 13.5 µM and the MIC90 came to 25 µM (≈ 2.55 µg/mL).

Turning to `CC[C@@H](CO)NCCN[C@@H](CC)CO` [ETHAMBUTOL], in data set [2], the EC50 was less than 1.56 µM, the EC90 was found to be 32.8 µM and the MIC90 amounted to 12.5 µM (≈ 2.55 µg/mL).

Consider `NNC(=O)c1ccncc1` [ISONIAZID], for which, in data set [2], the EC50 is 0.18 µM, the EC90 worked out at 0.29 µM and the MIC90 is 0.31 µM (≈ 0.0425 µg/mL).

For the compound `CCc1nc(N)nc(N)c1-c1ccc(Cl)cc1` [PYRIMETHAMINE], in data set [2], the EC50 worked out at 37.4 µM, the 90% effect concentration (EC90) was found to be 75 µM and the MIC90 came out at 100 µM (≈ 24.9 µg/mL).

Source of the values: ChEMBL document CHEMBL3120070, “Antimycobacterial evaluation of novel hybrid arylidene thiazolidine-2,4-diones” (Bioorg Med Chem Lett, 2014).
